Like-named read-outs stand apart in the source and are kept apart here.
Legend:
tulip = experiment: Tulip bulbs in peat watered with working solution: height, stem diameter, weights, root length, flowering, vigor (Example 1); type: in vivo; details: 80 mg/L, benzothiadiazole salt 30 mg/L; for Vigor [on a scale from 1 to 5]: 1 is a laying plant, 5 is a stiff plant; for Average plant height, initial height, first treatment: before 1st watering; for Average plant height, second treatment: before 2nd watering; for Average plant height, third treatment: before 3rd watering; for Average plant height, fourth treatment: before 4th watering; for Average plant height, 20 days after the 4th treatment: end of experiment
Protocol: Control plants were watered with distilled water. During the conducted experiment, plant height was measured before each treatment. Flowering length and plant vigor were also studied. After 20 days from the end of the last treatment, the fresh and dry weight of aboveground parts and roots, and root length were assessed.

tomato seedlings = experiment: Tomato seedlings in pots sprayed 3 times: height, fresh and dry weight, chlorophyll (Example 3); type: in vivo; details: 80 mg/L, benzothiadiazole salt 30 mg/L; for Average plant height, before second treatment / Average plant height, before third treatment / Average plant height, initial height, before first treatment / Chlorophyll content (SPAD), a day after treatment #1 / Chlorophyll content (SPAD), a day after treatment #2 / Chlorophyll content (SPAD), a day after treatment #3 / Plant height increase / Chlorophyll content (SPAD), Treatment #1 / Chlorophyll content (SPAD), Treatment #2 / Chlorophyll content (SPAD), Treatment #3: chitosan lactate 50 mg/l; for Average dry mass / Average fresh mass: above-ground part; for Chlorophyll content (SPAD), Treatment #1: before treatment #1; for Chlorophyll content (SPAD), Treatment #2: before treatment #2; for Chlorophyll content (SPAD), Treatment #3: before treatment #3
From the text: Tomato seedlings (12 according to development scale BBCH) were planted into pots with peat substrate (P9 pots having 0.5 l). Plant pots were placed in greenhouse and cultivated for a 1 and a half month. Plants were sprayed with tested substance 3 times, in 10-day interval. […] 2-methoxyethyl(trimethyl)-ammonium benzo[1,2,3]thiadiazole-7-carboxylate; 3. […] 2-methoxyethyl(trimethyl)ammonium 3-chlorosalicylate; 7. 2-ethoxyethyl(trimethyl)ammonium 3-chlorosalicylate; 8. ethyl(trimethyl)ammonium 3-chlorosalicylate at a concentration od 80 mg/l. Plants were sprayed with tested substances three times at 10-day intervals. Plants in peat substrate treated with water only were the control. During the course of the experiment, the height of the plants was measured, and at the end the fresh and dry weight of the aboveground part was evaluated. Moreover chlorophyll content was measured. The experiment was conducted in 4 repetitions with 5 plants in each (a total of 20 plants per each variant of treatment).

lettuce = system: lettuce
From the text: The purpose of the study was to determine the effect of foliar spraying with test solutions on lettuce (Lactuca sativa L. ‘Zeralda’) plants. The plants were sprayed 7 and 14 days after transplanting to a permanent site. […] After another 7 days, drought stress was induced (plants in the selected combinations were not watered until symptoms of leaf wilting appeared), followed by proper watering of the plants again. Control plants were watered in turn to a constant weight. After 3 days after re-watering, chlorophyll fluorescence was measured (OJIP test, methodology described, among others, in Kalaji H. M., 2011. Impact of abiotic stress factors on chlorophyll fluorescence in plants of selected barley cultivars Hordeum vulgare L. SGGW Publishing House, Warsaw [https://badanieroslin.pl/wp-content/uploads/2018/11/Oddzialywanie-abiotycznych-czynnikow. . . ..pdf]) and the condition of the plants was assessed.
The measurement was carried out after inducing drought stress, followed by re-watering the plants to a constant weight. […] This parameter is lowered by stresses.

[1] = Table 2, 20 days after last treatment
[2] = Table 3 (title: tulip bulbs / root system)
[3] = Control (watered), double application, 3-chlorosalicylate 100 mg/L, benzothiadiazole salt 50 mg/L
[4] = Drought, double application, 3-chlorosalicylate 100 mg/L, benzothiadiazole salt 50 mg/L
[5] = double application, 3-chlorosalicylate 100 mg/L, benzothiadiazole salt 50 mg/L
[6] = Control (watered), single application, 50 mg/L
[7] = Drought, single application, 50 mg/L

C[N+](C)(C)CCO.O=C([O-])c1cccc(Cl)c1O [choline 3-chlorosalicylate]
Average stem diameter at the end of the experiment 20 days after the 4th treatment (tulip): 8.1 b mm
Flowering length (tulip): 23 days
Root length (tulip): 84.3 b mm
Vigor [on a scale from 1 to 5] (tulip): 4.8 b
Average dry weight of the above-ground part (tulip; [1]): 41.8 b g
Average fresh weight of the above-ground part (tulip; [1]): 443.8 b g
Average dry weight of the above-ground part (tulip; [2]): 5.6 b g
Average fresh weight of the above-ground part (tulip; [2]): 59.5 b g
Average plant height, initial height, first treatment (tulip): 45.7 a mm
Average plant height, second treatment (tulip): 130.5 b mm
Average plant height, third treatment (tulip): 257.4 b mm
Average plant height, fourth treatment (tulip): 369.1 b mm
Average plant height, 20 days after the 4th treatment (tulip): 510.9 b mm
Average plant height, before second treatment (tomato seedlings): 143.2 b mm
Average plant height, before third treatment (tomato seedlings): 345.1 b mm
Average plant height, initial height, before first treatment (tomato seedlings): 59.3 a mm
Chlorophyll content (SPAD), a day after treatment #1 (tomato seedlings): 74.6 b
Chlorophyll content (SPAD), a day after treatment #2 (tomato seedlings): 76.2 b
Chlorophyll content (SPAD), a day after treatment #3 (tomato seedlings): 79.3 b
Plant height increase (tomato seedlings): 285.8 b mm
Average dry mass (tomato seedlings): 83.1 b g
Average fresh mass (tomato seedlings): 327.7 b g
Chlorophyll content (SPAD), Treatment #1 (tomato seedlings): 48.5 a
Chlorophyll content (SPAD), Treatment #2 (tomato seedlings): 48.3 a
Chlorophyll content (SPAD), Treatment #3 (tomato seedlings): 49.5 a
ABS/RC (lettuce; [3]): 1.48 b
DIo/RC (lettuce; [3]): 0.24 a
ETo/RC (lettuce; [3]): 1.08 b
F0 (lettuce; [3]): 4877 a
FM (lettuce; [3]): 34278 a
FM/F0 (lettuce; [3]): 7.32 c
Fv (lettuce; [3]): 29401 a
Fv/F0 (lettuce; [3]): 6.32 c
Fv/FM (lettuce; [3]): 0.86 c
Pi_Abs (PSII functioning index calculated on the basis of energy absorption) (lettuce; [3]): 12.74 days
TRo/RC (lettuce; [3]): 1.72 b
ABS/RC (lettuce; [4]): 1.20 a
DIo/RC (lettuce; [4]): 0.24 a
ETo/RC (lettuce; [4]): 0.81 a
F0 (lettuce; [4]): 5524 a
FM (lettuce; [4]): 33908 a
FM/F0 (lettuce; [4]): 6.16 ab
Fv (lettuce; [4]): 28384 b
Fv/F0 (lettuce; [4]): 5.16 ab
Fv/FM (lettuce; [4]): 0.84 ab
Pi_Abs (PSII functioning index calculated on the basis of energy absorption) (lettuce; [4]): 7.77 b
TRo/RC (lettuce; [4]): 1.44 a
% dry matter (leaf), Average (lettuce; [5]): 3.72 b %
% dry matter (leaf), Drought (lettuce; [5]): 3.55 b %
% dry matter (leaf), Watered (lettuce; [5]): 3.96 b %
Head and root weight, Average (lettuce; [5]): 72.5 a g/plant
Head and root weight, Drought (lettuce; [5]): 71.7 abc g/plant
Head and root weight, Watered (lettuce; [5]): 73.2 abc g/plant
Head weight, Average (lettuce; [5]): 51.3 a g/plant
Head weight, Drought (lettuce; [5]): 52.8 b g/plant
Head weight, Watered (lettuce; [5]): 50.6 ab g/plant
RWC (relative water content), Watered (lettuce; [5]): 73.2 ab %
RWC, Average (lettuce; [5]): 73.3 a %
RWC, Drought (lettuce; [5]): 71.9 ab %

C[N+](C)(C)CCO.O=C([O-])c1cccc2nnsc12
Average stem diameter at the end of the experiment 20 days after the 4th treatment (tulip): 8.3 b mm
Flowering length (tulip): 23 days
Root length (tulip): 84.7 b mm
Vigor [on a scale from 1 to 5] (tulip): 4.9 b
Average dry weight of the above-ground part (tulip; [1]): 44.1 b g
Average fresh weight of the above-ground part (tulip; [1]): 435.7 b g
Average dry weight of the above-ground part (tulip; [2]): 5.7 b g
Average fresh weight of the above-ground part (tulip; [2]): 61.0 b g
Average plant height, initial height, first treatment (tulip): 46.4 a mm
Average plant height, second treatment (tulip): 133.6 b mm
Average plant height, third treatment (tulip): 271.2 b mm
Average plant height, fourth treatment (tulip): 375.6 b mm
Average plant height, 20 days after the 4th treatment (tulip): 518.0 b mm
Average plant height, before second treatment (tomato seedlings): 146.7 b mm
Average plant height, before third treatment (tomato seedlings): 337.1 b mm
Average plant height, initial height, before first treatment (tomato seedlings): 60.5 a mm
Chlorophyll content (SPAD), a day after treatment #1 (tomato seedlings): 76.1 b
Chlorophyll content (SPAD), a day after treatment #2 (tomato seedlings): 81.3 c
Chlorophyll content (SPAD), a day after treatment #3 (tomato seedlings): 78.2 b
Plant height increase (tomato seedlings): 276.6 b mm
Average dry mass (tomato seedlings): 87.5 b g
Average fresh mass (tomato seedlings): 333.5 b g
Chlorophyll content (SPAD), Treatment #1 (tomato seedlings): 49.6 a
Chlorophyll content (SPAD), Treatment #2 (tomato seedlings): 47.5 a
Chlorophyll content (SPAD), Treatment #3 (tomato seedlings): 50.1 a
ABS/RC (lettuce; [3]): 1.46 b
DIo/RC (lettuce; [3]): 0.28 b
ETo/RC (lettuce; [3]): 0.93 ab
F0 (lettuce; [3]): 7100 b
FM (lettuce; [3]): 45265 b
FM/F0 (lettuce; [3]): 6.52 ab
Fv (lettuce; [3]): 38164 b
Fv/F0 (lettuce; [3]): 5.52 abc
Fv/FM (lettuce; [3]): 0.85 abc
Pi_Abs (PSII functioning index calculated on the basis of energy absorption) (lettuce; [3]): 10.33 ab
TRo/RC (lettuce; [3]): 1.74 b
ABS/RC (lettuce; [6]): 1.45 b
DIo/RC (lettuce; [6]): 0.28 b
ETo/RC (lettuce; [6]): 0.87 ab
F0 (lettuce; [6]): 6762 b
FM (lettuce; [6]): 41874 b
FM/F0 (lettuce; [6]): 6.19 abc
Fv (lettuce; [6]): 35112 b
Fv/F0 (lettuce; [6]): 5.19 abc
Fv/FM (lettuce; [6]): 0.84 abc
Pi_Abs (PSII functioning index calculated on the basis of energy absorption) (lettuce; [6]): 4.47 a
TRo/RC (lettuce; [6]): 1.74 b
ABS/RC (lettuce; [4]): 1.14 a
DIo/RC (lettuce; [4]): 0.20 a
ETo/RC (lettuce; [4]): 0.84 ab
F0 (lettuce; [4]): 4965 a
FM (lettuce; [4]): 34715 a
FM/F0 (lettuce; [4]): 6.99 bc
Fv (lettuce; [4]): 29750 b
Fv/F0 (lettuce; [4]): 5.99 ab
Fv/FM (lettuce; [4]): 0.86 c
Pi_Abs (PSII functioning index calculated on the basis of energy absorption) (lettuce; [4]): 12.61 days
TRo/RC (lettuce; [4]): 1.34 a
ABS/RC (lettuce; [7]): 1.12 a
DIo/RC (lettuce; [7]): 0.24 a
ETo/RC (lettuce; [7]): 0.75 a
F0 (lettuce; [7]): 5675 a
FM (lettuce; [7]): 32147 a
FM/F0 (lettuce; [7]): 5.67 a
Fv (lettuce; [7]): 26472 a
Fv/F0 (lettuce; [7]): 4.67 a
Fv/FM (lettuce; [7]): 0.83 a
Pi_Abs (PSII functioning index calculated on the basis of energy absorption) (lettuce; [7]): 7.47 b
TRo/RC (lettuce; [7]): 1.36 a
% dry matter (leaf), Average (lettuce; [5]): 4.67 b %
% dry matter (leaf), Drought (lettuce; [5]): 3.61 a %
% dry matter (leaf), Watered (lettuce; [5]): 5.73 c %
Head and root weight, Average (lettuce; [5]): 69.4 a g/plant
Head and root weight, Drought (lettuce; [5]): 70.6 ab g/plant
Head and root weight, Watered (lettuce; [5]): 69.2 a g/plant
Head weight, Average (lettuce; [5]): 53.4 a g/plant
Head weight, Drought (lettuce; [5]): 51.6 ab g/plant
Head weight, Watered (lettuce; [5]): 51.6 b g/plant
RWC (relative water content), Watered (lettuce; [5]): 74.3 b %
RWC, Average (lettuce; [5]): 75.0 a %
RWC, Drought (lettuce; [5]): 64.0 a %
% dry matter (leaf), Average (lettuce; single application, 50 mg/L): 3.75 b %
% dry matter (leaf), Drought (lettuce; single application, 50 mg/L): 3.59 b %
% dry matter (leaf), Watered (lettuce; single application, 50 mg/L): 3.51 b %
Head and root weight, Average (lettuce; single application, 50 mg/L): 84.6 b g/plant
Head and root weight, Drought (lettuce; single application, 50 mg/L): 84.4 bc g/plant
Head and root weight, Watered (lettuce; single application, 50 mg/L): 85.2 c g/plant
Head weight, Average (lettuce; single application, 50 mg/L): 65.1 b g/plant
Head weight, Drought (lettuce; single application, 50 mg/L): 62.5 c g/plant
Head weight, Watered (lettuce; single application, 50 mg/L): 65.3 c g/plant
RWC (relative water content), Watered (lettuce; single application, 50 mg/L): 77.1 b %
RWC, Average (lettuce; single application, 50 mg/L): 74.5 a %
RWC, Drought (lettuce; single application, 50 mg/L): 71.5 ab %

Reference: patent publication US20260041093A1, “Ionic Derivatives Of Aromatic Carboxylic Acid For Use As Plant Stimulants, Method For Stimulating Plants And Use Of These Derivatives For Manufacturing Compositions For Stimulating Plants” (FUNDACJA UNIWERSYTETU IM. ADAMA MICKIEWICZA W POZNANIU, priority 2022, published 2026)
